Measured values as given in patent publication US8735398B2 (Bristol-Myers Squibb Company, priority 2009, dated 2014).
Where two headings read alike, the source gives them in different places.

Test system: HCV 1b genotype
Assay: HCV replicon assay (HCV-neo replicon cells, wild-type)
Assay type: cell-based, Hepatitis C virus
Conditions: HCV 1b genotype replicon
Procedure: An HCV Replicon assay was utilized in the present disclosure, and was prepared, conducted and validated as described in commonly owned PCT/US2006/022197 and in O'Boyle et al., Antimicrob. Agents Chemother, 49(4):1346-1353 (April 2005). Assay methods incorporating luciferase reporters have also been used as described (Apath.com).
HCV-neo replicon cells and replicon cells containing resistance substitutions in the NS5A region were used to test the currently described family of compounds.
The compounds were determined to have differing degrees of reduced inhibitory activity on cells containing mutations vs. the corresponding inhibitory potency against wild-type cells. Thus, the compounds of the present disclosure can be effective in inhibiting the function of the HCV NS5A protein and are understood to be as effective in combinations as previously described in application PCT/US2006/022197 and commonly owned WO 04/014852. It should be understood that the compounds of the present disclosure can inhibit multiple genotypes of HCV. […] In one embodiment, compounds of the present disclosure are inhibitory versus 1a, 1b, 2a, 2b, 3a, 4a, and 5a genotypes.

[1] = Hepatitis C virus, class symbols, read-out: EC50 Range against HCV 1b
[2] = Hepatitis C virus, class symbol, read-out: EC50 Range against HCV 1b
[3] = Hepatitis C virus, read-out: EC50 1b

CC(C)(C)O[C@H]1CN[C@H](C(=O)Nc2ccc(-c3cnc(-c4ccc(NC(=O)[C@@H]5C[C@@H](OC(C)(C)C)CN5)cc4)o3)cc2)C1 [XY-60, (2S,4R,2′S,4′R)-N,N′-(1,3-oxazole-2,5-diyldi-4,1-phenylene)bis(4-tert-butoxy-2-pyrrolidinecarboxamide)]
EC50 [1]: 1 to 10 µM

CN(C)[C@@H](C(=O)N1CCCN1C(=O)Nc1ccc(-c2cnc(-c3ccc(NC(=O)N4CCCN4C(=O)[C@@H](c4ccccc4)N(C)C)cc3)o2)cc1)c1ccccc1 [FY-9, N,N′-(1,3-oxazole-2,5-diyldi-4,1-phenylene)bis(2-((2R)-2-(dimethylamino)-2-phenylacetyl)-1-pyrazolidinecarboxamide)]
EC50 [2]: 0.00457 to 0.099 µM

COc1cccc2c(C(=O)N3CCC[C@H]3C(=O)Nc3ccc(-c4ccc(-c5ccc(NC(=O)[C@@H]6CCCN6C(=O)[C@H](NC(C)=O)c6ccccc6)cc5)o4)cc3)nc(Cl)cc12 [JG-67, (2S)-1-((2R)-2-acetamido-2-phenylacetyl)-N-(4-(5-(4-((((2S)-1-((3-chloro-5-methoxy-1-isoquinolinyl)carbonyl)-2-pyrrolidinyl)carbonyl)amino)phenyl)-2-furyl)phenyl)-2-pyrrolidinecarboxamide]
EC50 [2]: 0.00457 to 0.099 µM | EC50 [3]: 0.0052 µM

COC(C(=O)N1C[C@H](O)C[C@H]1C(=O)Nc1ccc(-c2cnc(-c3ccc(NC(=O)[C@@H]4C[C@@H](O)CN4C(=O)C(OC)c4ccccc4)cc3)o2)cc1)c1ccccc1 (stereo partly drawn) [XY-49, (2S,4R,2′S,4′R)-N,N′-(1,3-oxazole-2,5-diyldi-4,1-phenylene)bis(4-hydroxy-1-(methoxy(phenyl)acetyl)-2-pyrrolidinecarboxamide)]
EC50 [1]: 0.00457 to 0.099 µM

CC(=O)O[C@H](C(=O)N1CCC[C@H]1C(=O)Nc1ccc(-c2ccc(-c3ccc(NC(=O)[C@@H]4CCCN4C(=O)[C@@H](OC(C)=O)c4ccccc4)cc3)o2)cc1)c1ccccc1
EC50 [2]: 0.1 to 0.999 µM

O=C(Nc1ccc(-c2cnc(-c3ccc(NC(=O)[C@@H]4C[C@@H](O)CN4C(=O)C4CC4)cc3)o2)cc1)[C@@H]1C[C@@H](O)CN1C(=O)C1CC1 [XY-57, (2S,4R,2′S,4′R)-N,N′-(1,3-oxazole-2,5-diyldi-4,1-phenylene)bis(1-(cyclopropylcarbonyl)-4-hydroxy-2-pyrrolidinecarboxamide)]
EC50 [1]: 1 to 10 µM

CN(C)[C@H](C(=O)N1CCC[C@H]1C(=O)Nc1ccc(-c2cnc(-c3ccc(NC(=O)[C@@H]4CCCN4C(=O)[C@H]([C@@H](O)c4ccccc4)N(C)C)cc3)o2)cc1)[C@@H](O)c1ccccc1 [JR-13, (S,S,2S)-N,N′-(4,4′-(oxazole-2,5-diyl)bis(4,1-phenylene))bis(1-((2S,3S)-2-(dimethylamino)-3-hydroxy-3-phenylpropanoyl)pyrrolidine-2-carboxamide)]
EC50 (class symbols, read-out: EC50 Range against HCV 1b): 0.1 to 0.999 µM | EC50 (read-out: EC50 1b): 0.112 µM

CC(C)(C)OC(=O)N1CCCC1(Cc1ccccc1)C(=O)N1CCC[C@H]1C(=O)Nc1ccc(-c2cnc(-c3ccc(NC(=O)[C@@H]4CCCN4C(=O)C4(Cc5ccccc5)CCCN4C(=O)OC(C)(C)C)cc3)o2)cc1 (stereo partly drawn) [Example D-32, di-tert-butyl 2,2′-(1,3-oxazole-2,5-diylbis(4,1-phenylenecarbamoyl(2S)-2,1-pyrrolidinediylcarbonyl))bis(2-benzyl-1-pyrrolidinecarboxylate)]
EC50 (class symbol, read-out: EC50 Range against HCV 1b): 1 to 10 µM

O=C(Nc1ccc(-c2nnc(-c3ccc(NC(=O)[C@@H]4CCCN4C(=O)Cc4cccnc4)cc3)o2)cc1)[C@@H]1CCCN1C(=O)Cc1cccnc1 [Example D-63, (2S,2′S)-N,N′-(1,3,4-oxadiazole-2,5-diyldi-4,1-phenylene)bis[1-(3-pyridinylacetyl)-2-pyrrolidinecarboxamide]]
EC50 [2]: 1 to 10 µM | EC50 [3]: 1.94 µM

CCn1c(=O)n(C(C)C(=O)N2CCC[C@H]2C(=O)Nc2ccc(-c3cnc(-c4ccc(NC(=O)[C@@H]5CCCN5C(=O)C(C)n5c(=O)n(CC)c6ccccc65)cc4)o3)cc2)c2ccccc21 (stereo partly drawn) [JR-10, (2S,2′S)-N,N′-(2,5-oxazolediyldi-4,1-phenylene)bis[1-[2-(3-ethyl-2,3-dihydro-2-oxo-1H-benzimidazol-1-yl)-1-oxopropyl]-2-pyrrolidinecarboxamide]]
EC50 [1]: 1 to 10 µM

CC(=O)N1CCC[C@H]1C(=O)Nc1ccc(-c2cnc(-c3ccc(NC(=O)[C@@H]4C=CCN4C(=O)c4cccs4)cc3)o2)cc1 [MS-7, (2S)-N-[4-[5-[4-[[[(2S)-1-acetyl-2-pyrrolidinyl]carbonyl]amino]phenyl]-2-oxazolyl]phenyl]-2,5-dihydro-1-(2-thienylcarbonyl)-1H-pyrrole-2-carboxamide]
EC50 [2]: 1 to 10 µM

C[C@H](NC(=O)c1nc(Cl)cc2ccccc12)C(=O)Nc1ccc(-c2nnc(-c3ccc(NC(=O)[C@H](C)NC(=O)c4nc(Cl)cc5ccccc45)cc3)o2)cc1 [RK-36, N,N′-(1,3,4-oxadiazole-2,5-diylbis(4,1-phenyleneimino((2S)-1-oxo-1,2-propanediyl)))bis(3-chloro-1-isoquinolinecarboxamide)]
EC50 [1]: 1 to 10 µM | EC50 [3]: 1 µM

COc1ccc2[nH]cc(CC(=O)N3CCC[C@H]3C(=O)Nc3ccc(-c4cnc(-c5ccc(NC(=O)[C@@H]6CCCN6C(=O)Cc6c[nH]c7ccc(OC)cc67)cc5)o4)cc3)c2c1 [XY-11, (2S,2′S)-N,N′-(1,3-oxazole-2,5-diyldi-4,1-phenylene)bis(1-((5-methoxy-1H-indol-3-yl)acetyl)-2-pyrrolidinecarboxamide)]
EC50 [1]: 0.1 to 0.999 µM

NC(=O)[C@@H]1C[C@@H]2C[C@@H]2N1C(=O)C1c2ccccc2C=CN1c1ccc(-c2ncc(-c3ccc(NC(=O)[C@@H]4C[C@@H]5C[C@@H]5N4C(=O)c4nccc5ccccc45)cc3)o2)cc1 (stereo partly drawn) [CB-2, (1S,3S,5S,1′S,3′S,5′S)-N,N′-(1,3-oxazole-2,5-diyldi-4,1-phenylene)bis(2-(1-isoquinolinylcarbonyl)-2-azabicyclo[3.1.0]hexane-3-carboxamide)]
EC50 [2]: 0.1 to 0.999 µM

CC(=O)N[C@@H](C(=O)N1CCCC1C(=O)Nc1ccc(-c2cnc(-c3ccc(NC(=O)C4CCCN4C(=O)[C@H](NC(C)=O)c4ccccc4)cc3)o2)cc1)c1ccccc1 (stereo partly drawn) [OL-53, N,N′-(1,3-oxazole-2,5-diyldi-4,1-phenylene)bis(1-((2R)-2-acetamido-2-phenylacetyl)-2-pyrrolidinecarboxamide)]
EC50 [2]: < 0.00457 µM

O=C(Nc1ccc(-c2cc(-c3ccc(NC(=O)[C@@H]4C=CCN4C(=O)C4CCC4)cc3)[nH]n2)cc1)[C@@H]1C=CCN1C(=O)C1CCC1 [OL-38, (2S,2′S)-N,N′-(1H-pyrazole-3,5-diyldi-4,1-phenylene)bis(1-(cyclobutylcarbonyl)-2,5-dihydro-1H-pyrrole-2-carboxamide)]
EC50 [2]: 1 to 10 µM | EC50 [3]: 10 µM

C[C@H](NC(=O)OCc1ccccc1)C(=O)Nc1ccc(-c2n[nH]c(=O)n2-c2ccc(NC(=O)[C@H](C)NC(=O)OCc3ccccc3)cc2)cc1 [OL-12, [(1,5-dihydro-5-oxo-4H-1,2,4-triazole-3,4-diyl)bis[4,1-phenyleneimino[(1S)-1-methyl-2-oxo-2,1-ethanediyl]]]bis-carbamic acid, bis(phenylmethyl) ester]
EC50 [2]: 1 to 10 µM

O=C(Nc1ccc(-c2cnc(-c3ccc(NC(=O)[C@@H]4CCCN4C(=O)[C@@H]4CCCN4)cc3)o2)cc1)[C@@H]1CCCN1C(=O)[C@@H]1CCCN1 [Example D-34, (2S,2′S)-N,N′-(1,3-oxazole-2,5-diyldi-4,1-phenylene)bis(1-((2S)-2-pyrrolidinylcarbonyl)-2-pyrrolidinecarboxamide)]
EC50 [2]: 1 to 10 µM

CC1(C(=O)N2CCC[C@H]2C(=O)Nc2ccc(-c3cnc(-c4ccc(NC(=O)[C@@H]5CCCN5C(=O)C5(C)CC5)cc4)o3)cc2)CC1 [XY-39, (2S,2′S)-N,N′-(1,3-oxazole-2,5-diyldi-4,1-phenylene)bis(1-((1-methylcyclopropyl)carbonyl)-2-pyrrolidinecarboxamide)]
EC50 [1]: 0.1 to 0.999 µM

COc1cccc2c(C(=O)N3CCC[C@H]3C(=O)Nc3ccc(-c4ccc(-c5ccc(NC(=O)[C@@H]6CCCN6C(=O)[C@@H](O)c6ccccc6)cc5)o4)cc3)nc(Cl)cc12 [JG-68, (2S)-1-((3-chloro-5-methoxy-1-isoquinolinyl)carbonyl)-N-(4-(5-(4-((((2S)-1-((2S)-2-hydroxy-2-phenylacetyl)-2-pyrrolidinyl)carbonyl)amino)phenyl)-2-furyl)phenyl)-2-pyrrolidinecarboxamide]
EC50 [2]: 0.1 to 0.999 µM

O=C(Nc1ccc(-c2cnc(-c3ccc(NC(=O)[C@@H]4CCCN4C(=O)[C@H](O)c4ccccc4)cc3)o2)cc1)[C@@H]1CCCN1C(=O)[C@H](O)c1ccccc1 [JG-23, (2S,2′S)-N,N′-(1,3-oxazole-2,5-diyldi-4,1-phenylene)bis(1-((2R)-2-hydroxy-2-phenylacetyl)-2-pyrrolidinecarboxamide)]
EC50 [2]: < 0.00457 µM

CO[C@H]1C[C@@H](C(=O)Nc2ccc(-c3cnc(-c4ccc(NC(=O)[C@@H]5C[C@H](OC)CN5C(=O)[C@@H](c5ccccc5)N(C)C)cc4)o3)cc2)N(C(=O)[C@@H](c2ccccc2)N(C)C)C1 [OL-59, (2S,4S,2′S,4′S)-N,N′-(1,3-oxazole-2,5-diyldi-4,1-phenylene)bis(1-((2R)-2-(dimethylamino)-2-phenylacetyl)-4-methoxy-2-pyrrolidinecarboxamide)]
EC50 [2]: < 0.00457 µM

COc1cccc(C(=O)N2CCC[C@H]2C(=O)Nc2ccc(-c3nnc(-c4ccc(NC(=O)[C@@H]5CCCN5C(=O)c5cccc(OC)c5)cc4)o3)cc2)c1 [RK-7, (2S,2′S)-N,N′-(1,3,4-oxadiazole-2,5-diyldi-4,1-phenylene)bis(1-(3-methoxybenzoyl)-2-pyrrolidinecarboxamide)]
EC50 [2]: 0.1 to 0.999 µM
